Experimental data reported in patent US8796230B2, “Ivermectin antagonizes ethanol inhibition in P2X4 receptors” (University of Southern California, priority 2010, dated 2014).
Residue numbers refer to the chain shown, from its start. “Also recorded” adds a separate entry of the source. Read-outs that look alike come from different tables or passages of the source.

Tests used:
[1] = target: T1, mutant P2X4Rs at position 336 (Rattus norvegicus, UniProt P51577, M336Q); experiment: Two-electrode voltage-clamp of ATP-induced currents in mutant P2X4Rs with substitutions at position 336 in Xenopus oocytes; format: cell-based; settings: Met336 substituted with Gln; IVM 3 μM
T1 construct: expressed in transfected cells; host or cells: Xenopus laevis oocytes injected with cRNA
T1 sequence (P51577 1-388 M336Q): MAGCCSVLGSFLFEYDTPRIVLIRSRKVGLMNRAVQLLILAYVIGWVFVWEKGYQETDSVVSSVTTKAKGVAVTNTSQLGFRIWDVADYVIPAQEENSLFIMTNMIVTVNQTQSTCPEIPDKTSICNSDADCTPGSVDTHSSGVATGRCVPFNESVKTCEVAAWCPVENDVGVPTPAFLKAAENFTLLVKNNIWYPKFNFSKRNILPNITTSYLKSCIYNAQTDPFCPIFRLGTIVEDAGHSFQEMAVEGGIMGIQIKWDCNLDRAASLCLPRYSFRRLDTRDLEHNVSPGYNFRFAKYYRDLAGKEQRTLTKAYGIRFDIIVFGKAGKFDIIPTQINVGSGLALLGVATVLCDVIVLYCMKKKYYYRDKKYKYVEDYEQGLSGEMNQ
Method: (§1) Site-directed mutagenesis and cRNA synthesis. The cDNA of rat P2X4R (GenBank accession No. X87763) was sub-cloned into pcDNA3 vector (Invitrogen, Carlsbad, Calif.). Mutagenesis was performed to introduce single point mutations using QuickChange IIXL Site-Directed Mutagenesis kit (Stratagene, La Jolla, Calif.). The sequences of mutant constructs were verified using automated DNA sequencing (USC/Norris DNA Core Facility, University of Southern California).
(§2) Whole-cell voltage-clamp recordings. Two-electrode voltage-clamp recordings of oocytes were performed using a Warner Instruments Model OC-725C oocyte clamp amplifier (Hamden, Conn.) using procedures published earlier^5,6.
(§3) Experimental procedures. To induce currents and test the effects of alcohols and IVM in the present experiments, maximal (100 μM) or submaximal ATP concentrations (EC5-10 furthered referred to as EC10) were used. It has been previously shown that the use of EC10 can maximize the effects of ethanol and minimize receptor desensitization 18,19. The washout time between agonist applications was at least 5-10 min to allow complete re-sensitization of the receptors^18, 19.
(§4) Effects of the drugs were tested after a stable response to ATP EC10 was obtained. After a sufficient washout time (5-15 min), the cells were challenged with the same ATP EC10 to ensure an accurate response to the drugs and to asses any change in the baseline level.
(§5) IVM and alcohol applications.
(§6) Data analysis. Data are obtained from several batches of oocytes of at least 3 different frogs and are expressed as mean±SEM. Ethanol (hexanol) and/or IVM effects are presented as percentage change of peak currents evoked by ATP EC10 alone. Data were fitted to a concentration-response curve by using the following logistic equation: I=Imax*[drug]/([drug]+(EC50)), where I/Imax is the percentage of the maximum obtainable response, EC50 is the concentration producing a half-maximal response. GraphPAD Prism software (San Diego, Calif.) was used for data analysis and curve fitting. Statistical analysis was performed using unpaired t-test with significance set at P<0.05.

[2] = system: mutant P2X4Rs at position 336; experiment: as above; format: cell-based, rat; settings: IVM 3 μM
Method: as §1, §2, §3, §4, §5, §6

C57BL/6 mice = experiment: Two-bottle choice ethanol (10E versus water) intake in C57BL/6 mice
Method: Based on the initial experiments, a second study was conducted using a similar research design strategy with the following changes. Using a within subjects design, alcohol drinking was allowed to stabilize (based on DOSE approximately 10 g/kg) with a new set of C57Bl mice (n=15). […] On intervening days, the mice were injected with saline. After 3 days of saline injections (allowing for alcohol drinking to restabilize back to ‘baseline’ levels), the mice were injected with a single, higher dose of IVM (5.0 mg/kg). Once again drinking was allowed to re-established back to baseline.

rat WT P2X4 receptor = target: T2, rat WT P2X4 receptor (Rattus norvegicus, UniProt P51577); experiment: Comparison of Ivermectin analogues: two-electrode voltage-clamp of ATP EC10 currents in rat WT P2X4 receptor in Xenopus oocytes; format: cell-based; settings: for potentiation of ATP-induced currents, concentration dependence: co-application and pre-incubation (FIGS. 10C and 10D)
T2 construct: expressed in transfected cells; host or cells: Xenopus laevis oocytes injected with cRNA
T2 sequence (P51577 1-388): T1 sequence (P51577 1-388 M336Q) with Q336M
Method: Isolation of Xenopus Oocytes and cRNA Injections. Xenopus laevis frog (Nasco; WI) maintenance, oocyte isolation and cRNA injections were performed according to protocols as described previously (11,12,24).
Transcription of cDNA to cRNA. XL-Blue E. coli competent cells (Stratagene; CA) were transformed with rat WT P2X4 receptor cDNAs cloned into pcDNA3 vector (Invitrogen; CA). The isolated DNA was linearized and transcribed to result in capped cRNA, which was dissolved in nuclease-free water and stored at −70° C. until injection.
Whole-Cell Voltage Clamp Recording. […] Electrodes were prepared and used to impale the oocyte that was continuously perfused at the rate of 3-4 ml/min by extracellular bathing solution per procedures previously published (11,12,24). The peak currents recorded using a strip-chart recorder (Barnstead/Thermolyne, Iowa) were used in data analysis. All experiments were performed at room temperature (20-23° C.).
Experimental Procedures. Maximal ATP currents were induced by 15 s application of 100 μM ATP. Submaximal ATP concentrations (EC10) were applied for 20 s to generate currents. Ethanol and ABM/IVM were co-applied with ATP EC10. Washout time between drug applications was at least 5 min.
Data Analysis. Data are obtained from several batches of at least 3 different oocyte batches and are presented as percentage change of peak currents evoked by ATP EC10 alone±SEM. GraphPAD Prism software (San Diego, Calif.) was used for data analysis and curve fitting. Statistical analysis was performed using Student's unpaired t-test and significance set at P<0.05.

male C57BL/6 mice = settings: for decrease in alcohol consumption: 10% alcohol, 24 hour access
P2X4Rs = target: T3, P2X4Rs (Rattus norvegicus, UniProt P51577); experiment: Surface biotinylation and Western blotting of P2X4R surface expression in oocytes; format: cell-based; settings: 3 μM IVM in the presence of 1 μM ATP; 20 s and 2 min
T3 construct: expressed in transfected cells; host or cells: Xenopus laevis oocytes injected with cRNA
T3 sequence (P51577 1-388): T1 sequence (P51577 1-388 M336Q) with Q336M
Method: Surface biotinylation and Western blotting. Oocytes expressing P2X4R cRNA were treated with 3 μM IVM in the presence and absence of 1 μM ATP and incubated with 1.0 mg/ml membrane-impermeable sulfo-NHS-SS-biotin (Pierce Biotechnology, Rockford, Ill.) for 1 hr on ice. After lysis, the biotinylated proteins were precipitated by overnight incubation with streptavidin beads (Pierce Biotechnology) and extracted using SDS sample buffer. Protein lysates of total and biotinylated fractions were then run on 10% SDS-PAGE, transferred to PVDF membranes and blotted with a rabbit P2X4R antibody (Millipore, Temecula, Calif.). Following incubation with the secondary anti-rabbit antibody, the P2X4R bands were visualized using enhanced chemiluminescence (Pierce Biotechnology).

rat P2X4R = target: T4, rat P2X4R (Rattus norvegicus, UniProt P51577); experiment: Two-electrode voltage-clamp of ATP EC10-induced currents in WT P2X4Rs expressed in Xenopus oocytes; format: cell-based
T4 construct: expressed in transfected cells; host or cells: Xenopus laevis oocytes injected with cRNA
T4 sequence (P51577 1-388): T1 sequence (P51577 1-388 M336Q) with Q336M
Method: Isolation of Xenopus Laevis oocytes and cRNA injections. Xenopus oocytes were isolated and maintained as described previously^18,19. All procedures for the maintenance of Xenopus Laevis frogs and oocyte isolation were approved by The Institutional Animal Care and Use Committee of the University of Southern California. Stage V and VI oocytes were used for cRNA (0.01-5 ng) injections using Nanoject II Nanoliter injection system (Drummond Scientific, Broomall, Pa.) one day after isolation. Injected oocytes were stored at 16° C. in incubation medium containing (in mM), […], theophylline 0.6, pyruvic acid 2.5, with 1% horse serum and 0.05 mg/ml gentamycin. The oocytes were used in electrophysiological recordings for 3-10 days after cRNA injections.
as §1
The DNA of WT or mutant receptors was linearized and transcribed using the mMESSAGE mMACHINE kit (Ambion, Austin, Tex.) to result in cRNA, which was stored at −70° C. until injection.
as §2, §3, §4, §5, §6

uninjected oocytes = experiment: Resting membrane currents in uninjected oocytes
Description: IVM and alcohol applications. […] To allow comparison of the effects of IVM with those of ethanol, the same co-application protocol was used for IVM.

[3] = system: mutant P2X4Rs at position 336; settings: cited from earlier work
P2X2R = experiment: Effect of n-chain alcohols on P2X2R function (unpublished data); format: cell-based
Description: This possibility was investigated by testing the effects of IVM on another n-chain alcohol. Previous investigations report that short chain alcohols potentiate, whereas long chain alcohols inhibit, native nicotinic acetylcholine receptors (nAChRs) contained in neuromuscular or Torpedo preparations^26-28. This alcohol crossover occurred at approximately butanol in nAChRs expressed in Xenopus oocytes^29. […] It is believed that testing an alcohol that produced potentiation, rather than inhibition, would provide an alternative method of determining if the interaction between ethanol and IVM represented an additive effect.

CC[C@H](C)[C@H]1O[C@]2(CC[C@@H]1C)C[C@@H]1C[C@@H](C/C=C(\C)[C@@H](O[C@H]3C[C@H](OC)[C@@H](O[C@H]4C[C@H](OC)[C@@H](O)[C@H](C)O4)[C@H](C)O3)[C@@H](C)/C=C/C=C3\CO[C@@H]4[C@H](O)C(C)=C[C@@H](C(=O)O1)[C@]34O)O2 [IVM, 5-O demethyl-22,23-dihydroavermectin A1a]
IVM sensitivity compared to non-polar bulky substitutions [1]: approximately the same effect
degree of IVM potentiation compared to WT P2X4Rs ([2]; Met336 substituted with Ala or Val): markedly increased
sensitivity to IVM ([2]; Met336 substituted with Arg or Glu): eliminated sensitivity
degree of IVM potentiation compared to WT P2X4Rs ([2]; Met336 substituted with Phe or Trp): increased IVM potentiation
average water consumption (C57BL/6 mice; IVM 10 mg/kg intraperitoneally): significant increase
ethanol intake (C57BL/6 mice; IVM 10 mg/kg intraperitoneally): non-significant reduction
daily 10E preference (C57BL/6 mice; IVM 10 mg/kg intraperitoneally prior to each day of access, 4 days, versus saline): strong trend
10E preference on day 3 (C57BL/6 mice; IVM 10 mg/kg intraperitoneally, day 3): significantly lower
ethanol consumption (C57BL/6 mice; single injection of IVM 2.5 mg/kg and 5.0 mg/kg, within subjects design, versus baseline with saline): significantly reduced
antagonism of the inhibitory effects of ethanol (rat WT P2X4 receptor; IVM co-applied with ethanol (FIGS. 9A and B)): antagonizes
potentiation of ATP-induced currents, concentration dependence (rat WT P2X4 receptor): concentration dependent
decrease in alcohol consumption (male C57BL/6 mice; IVM 2.5 mg/kg): 32%
decrease in alcohol consumption (male C57BL/6 mice; IVM 10 mg/kg): 50%
surface expression levels of P2X4Rs in oocytes (P2X4Rs): did not change
antagonism of the inhibitory effect of ethanol on ATP-activated currents (rat P2X4R; 0.5 μM IVM co-applied with 25 mM ethanol): completely antagonized
potentiation of ATP-gated currents in P2X4Rs (rat P2X4R; 0.5 μM IVM, delivered separately, ATP EC10): 31±4.9%
antagonism of the inhibitory effects of ethanol (rat P2X4R; IVM 0.5 μM, 200 mM ethanol): did not significantly alter
antagonism of the inhibitory effects of ethanol (rat P2X4R; IVM 0.5 μM, 50 and 100 mM ethanol): completely antagonized
effect on ATP-induced currents in P2X4R (rat P2X4R; IVM 3 μM applied individually): significantly potentiated
net result of exposure to both IVM and hexanol versus additive effects (rat P2X4R; IVM 3 μM with hexanol 10 mM): significantly less
combined action of IVM and ethanol versus estimated additive values of the individual effects (rat P2X4R; IVM 0.5, 1 and 3 μM with ethanol 50, 100, 200 mM): significantly lower
antagonism of the inhibitory effects of ethanol (rat P2X4R; IVM 1.0 and 3.0 μM, all ethanol concentrations (50-200 mM)): completely antagonizing
effect on EC10 ATP-gated currents in P2X4Rs (rat P2X4R; IVM co-applied with ATP, concentration-dependent and reversible): significantly potentiated
resting membrane currents in uninjected oocytes (uninjected oocytes): did not affect

CCO [ethanol]
sensitivity of the receptor to ethanol ([3]; Ala, Val at position 336): reduced
sensitivity of the receptor to ethanol ([3]; Arg or Glu at position 336): insensitive
effect on P2X2R function (P2X2R): inhibit
inhibition at 25000 µM (rat P2X4R; 25 mM ethanol, delivered separately, ATP EC10, read-out: inhibition of ATP-gated currents in P2X4Rs): 9 ± 2.3%
effect on ATP EC10-induced currents in P2X4Rs (rat P2X4R; ethanol 25-200 mM co-applied with ATP, concentration-dependent and reversible): inhibited
effect on ATP-induced currents in P2X4R (rat P2X4R; ethanol (C2) 200 mM): inhibited

CCCCCCO [hexanol]
effect on ATP-induced currents in P2X4R (rat P2X4R; hexanol (C6) 10 mM): significantly potentiated; also recorded: significant potentiation

CCCO [propanol]
effect on P2X2R function (P2X2R): inhibit

Abamectin [ABM]
antagonism of the inhibitory effects of ethanol (rat WT P2X4 receptor; ABM 0.5 μM, 25 and 50 mM ethanol): antagonizes
antagonism of the inhibitory effects of ethanol (rat WT P2X4 receptor; ABM 1.0 μM, all ethanol concentrations tested): able to antagonize
potency in modulating P2X4R activity relative to IVM (more potent) (rat WT P2X4 receptor; higher concentrations (≧3 μM)): 3-10 fold
potentiation of P2X4R activity compared with IVM (rat WT P2X4 receptor; lower concentrations (0.5 and 1.0 μM)): to the same degree as IVM

Selamectin
potency in modulating P2X4R activity relative to IVM (lower potency) (rat WT P2X4 receptor): 3-5 fold
antagonism of the inhibitory effects of ethanol (rat WT P2X4 receptor; SEL at 3 and 10 mM, 50 mM ethanol, co-application): antagonistic effect
potentiation of ATP-induced currents, concentration dependence (rat WT P2X4 receptor): small concentration-independent potentiation
potentiation of P2X4Rs (rat WT P2X4 receptor; only at 10 μM SEL during co-application): Significant potentiation
potentiation with the pre-incubation protocol versus co-application (rat WT P2X4 receptor; pre-incubation): higher potentiation
ethanol intake in mice (male C57BL/6 mice; mouse, in vivo): no effect

butanol
effect on P2X2R function (P2X2R): potentiates
effect on ATP-induced currents in P2X4R (rat P2X4R; butanol (C4) 50 mM): minimal effect
effect on ATP-induced currents in P2X4R (rat P2X4R; butanol (C4) 50 mM, listed as Butanol): minimal effects
